# From US11497734B2, “Dual inhibitors of TIM-3 and PD-1 pathways” (Aurigene Discovery Technologies Limited, priority 2017, dated 2022)
# How the values were obtained:
# PD-L1 = target: T1, PD-L1 (Mus musculus, UniProt Q9EP73); experiment: Rescue of mouse splenocyte proliferation in the presence of recombinant PD-L1 (CFSE proliferation assay); assay type: cell-based; conditions: 100 nM compound; anti-CD3/CD28 stimulated mouse splenocytes + PD-L1; 72 h; read-out: PDL1 (rescue of proliferation @ 100 nM)
# T1 construct: Fc (Fc chimera); purchased R&D Systems 1019-B7-100
# Description: Example 1: Rescue of Mouse Splenocyte Proliferation in the Presence of Recombinant PD-L1/PD-L2
# Recombinant mouse PD-L1 (rm-PDL-1, cat no: 1019-B7-100; R&D Systems) were used as the source of PD-L1.
# Mouse splenocytes harvested from 6-8 weeks old C57 BL6 mice; RPMI 1640 (GIBCO, Cat #11875); DMEM with high glucose (GIBCO, Cat #D6429); Fetal Bovine Serum [Hyclone, Cat #SH30071.03]; Penicillin (10000 unit/mL)-Streptomycin (10,000 μg/mL) Liquid (GIBCO, Cat #15140-122); MEM Sodium Pyruvate solution 100 mM (100×)), Liquid (GIBCO, Cat #11360); Nonessential amino acid (GIBCO, Cat #11140); L-Glutamine (GIBCO, Cat #25030); Anti-CD3 antibody (eBiosciences—16-0032); Anti-CD28 antibody (eBiosciences—16-0281); ACK lysis buffer (1 mL) (GIBCO, Cat #-A10492); Histopaque (density—1.083 gm/mL) (SIGMA 10831); Trypan blue solution (SIGMA-T8154); 2 mL Norm Ject Luer Lock syringe-(Sigma 2014-12); 40 μm nylon cell strainer (BD FALCON 35230); Hemacytometer (Bright line-SIGMA Z359629); FACS Buffer (PBS/0.1% BSA): Phosphate Buffered Saline (PBS) pH 7.2 (HiMedia TS1006) with 0.1% Bovine Serum Albumin (BSA) (SIGMA A7050) and sodium azide (SIGMA 08591); 5 mM stock solution of CFSE: CFSE stock solution was prepared by diluting lyophilized CFSE with 180 μL of Dimethyl sulfoxide (DMSO C2H6SO, SIGMA-D-5879) and aliquoted in to tubes for further use. Working concentrations were titrated from 10 μM to 1 μM. (eBioscience-650850-85); 0.05% Trypsin and 0.02% EDTA (SIGMA 59417C); 96-well format ELISA plates (Corning CLS3390); BD FACS caliber (E6016); Recombinant mouse B7-H1/PDL1 Fc Chimera, (rm-PD-L1 cat no: 1019-B7-100).
# Splenocytes harvested in a 50 mL falcon tube by mashing mouse spleen in a 40 μm cell strainer were further treated with 1 mL ACK lysis buffer for 5 min at room temperature. After washing with 9 mL of RPMI complete media, cells were re-suspended in 3 mL of 1×PBS in a 15 mL tube. 3 mL of Histopaque was added carefully to the bottom of the tube without disturbing overlaying splenocyte suspension. After centrifuging at 800×g for 20 min at room temperature, the opaque layer of splenocytes was collected carefully without disturbing/mixing the layers. Splenocytes were washed twice with cold 1×PBS followed by total cell counting using Trypan Blue exclusion method and used further for cell based assays.
# Splenocytes were cultured in RPMI complete media (RPMI+10% fetal bovine serum+1 mM sodium pyruvate+10,000 units/mL penicillin and 10,000 μg/mL streptomycin) and maintained in a CO2 incubator with 5% CO2 at 37° C.
# CFSE Proliferation Assay: CFSE is a dye that passively diffuses into cells and hinds to intracellular proteins. 1×10^6 cells/mL of harvested splenocytes were treated with 5 μM of CFSE in pre-warmed 1×PBS/0.1% BSA solution for 10 min at 37° C. Excess CFSE was quenched using 5 volumes of ice-cold culture media to the cells and incubated on ice for 5 min. CFSE labeled splenocytes were further given three washes with ice cold complete RPMI media. CFSE labeled 1×10^5 splenocytes added to wells containing either MDA-MB231 cells (1×10^5 cells cultured in high glucose DMEM medium) or recombinant human PDL-1 (100 ng/mL) and test compounds. Splenocytes were stimulated with anti-mouse CD3 and anti-mouse CD28 antibody (1 μg/mL each), and the culture was further incubated for 72 h at 37° C. with 5% CO2. Cells were harvested and washed thrice with ice cold FACS buffer and % proliferation was analysed by flow cytometry with 488 nm excitation and 521 nm emission filters. Data Compilation, Processing and Inference: […]
# recombinant human TIM-3 = experiment: Human PBMC IFN-γ release assay in the presence of recombinant TIM-3; assay type: cell-based; conditions: 100 nM compound, plate-coated TIM-3 + anti-CD3, anti-CD28, 72 h
# Description: Vehicle: Milli Q water; RPMI 1640 (GIBCO, Cat #11875); Fetal Bovine Serum [Hyclone, Cat #SH30071.03]; Penicillin (10000 unit/ml)-Streptomycin (10,000 μg/ml) liquid (GIBCO, Cat #15140-122); MEM Sodium Pyruvate solution 100 mM (100×). Liquid (GIBCO, Cat #11360); Nonessential amino acid (GIBCO, Cat #11140); L-Glutamine (GIBCO, Cat #25030); Recombinant human TIM-3 (rhGi24 TIM-3/B7-H5 Fc chimera (R&D systems, cat no: 7126-B7); Anti-h/m Gi24/TIM-3/B7-H5 purified mouse monoclonal IgG2B (R&D systems, cat no: MAB7126); Mouse IgG2B isotype control (R&D Systems cat no: MAB 004); Anti human-CD3 antibody (eBiosciences—16-0039); Anti human-CD28 antibody (eBiosciences—16-0289); Histopaque (density-1.077 gm/ml) (SIGMA 1077); Trypan Blue solution (SIGMA-T8154); Hemacytometer (Bright line-SIGMA Z359629); FACS Buffer containing Phosphate Buffered Saline (PBS) pH 7.2; (HiMedia TS1006) with 0.1% Bovine Serum Albumin (BSA) (SIGMA A7050) and sodium azide (SIGMA 08591); 96-well format ELISA plates (Corning 3599); 96-well format ELISA plates (Corning 3361); BD FACS caliber (E6016); Centrifuge (Eppendorf 5810 R); Human IFN-'γ Duo set ELISA kit (R&D Systems; cat no: DY-285).
# Human PBMC IFN-γ Release Assay
# 96-well cell culture plates were pre-coated with recombinant human TIM-3 (2.5 μg/ml) and anti-human CD3 (2.5 μg/ml), and stored at 4° C. overnight. Anti-human TIM-3 and isotype control antibodies were either coated along with the TIM-3 or incubated for 30 min next day before addition of cells. On the next day, plates were washed with 1× PBS and then incubated with test compounds for 30 min. Isolated PBMC (0.1×10^6 cells/well) and anti-human CD28 antibodies (1 μg/ml) were added to the wells. The culture was further incubated for 72 h at 37° C. with 5% CO2. After 72 h of incubation the cell culture supernatants were collected after brief centrifugation at 200 g×5 min at 4° C. and processed for human IFN-γ measurement by ELISA following manufacturer's protocol (R&D Systems; DY-285).
# In brief, 96-well ELISA plates were coated with 100 μl/well of capture antibody in coating buffer and incubated overnight at 4° C. Plates were washed five times with wash buffer and further blocked with 200 μl of 1× assay diluents for 1 hr at RT. Following wash step, 100 μl of cell culture supernatants were added to wells and further incubated for 2 hr at RT. Appropriate standards were also included. After wash step, plate was incubated for one hour with 100 μl/well of detection antibody. The wash step was repeated and the plate was incubated for 30 min with 100 μl/well of Avidin-HRP. The plate was washed four times with wash buffer and subsequently incubated for 15 min with 100 μl/well of substrate solution. 50 μl of stop solution was added to each well and the plate was read at 450 nm using Gen5 ver 2.05. Delta OD values were used for calculating the concentrations. The absorbance values were plotted against the standards and the concentration of IFN-γ was determined using GraphPad Prism software. Each experimental condition was carried out in triplicates.
# The percent rescue of IFN-γ release of the selected compounds of present invention are set forth below wherein “A” refers to compounds having more than 70% rescue of IFN-γ release, “B” refers to compounds having rescue of IFN-γ release ranges from 50% to 69.9% and “C” refers to compounds having less than 50% rescue of IFN-γ release.
# T1 sequence (Q9EP73 19-238 limits assumed): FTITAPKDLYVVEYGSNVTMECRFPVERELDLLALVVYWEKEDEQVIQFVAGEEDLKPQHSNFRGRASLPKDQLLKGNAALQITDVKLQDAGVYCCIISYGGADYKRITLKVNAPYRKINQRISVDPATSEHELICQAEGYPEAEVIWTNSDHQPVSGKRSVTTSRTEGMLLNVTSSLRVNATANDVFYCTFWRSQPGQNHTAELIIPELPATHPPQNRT
Structure (SMILES),activity at 0.1 µM (PD-L1),TIM-3 (rescue of IFN γ release @ 100 nM) (recombinant human TIM-3)
CC(O)[C@H](NC(=O)N[C@@H](CC(N)=O)c1nc(C2(N)CCCC2)no1)C(=O)O (stereo partly shown) [Compound 23],47%,C (less than 50% rescue of IFN-γ release)
CC(O)[C@H](NC(=O)N[C@@H](CC(N)=O)c1nc([C@@H](O)CO)no1)C(=O)O (stereo partly shown) [Compound 24],65%,A (more than 70% rescue of IFN-γ release)
CN[C@@H](CO)c1noc([C@@H](N)CC(N)=O)n1 [Compound 26],53%,B (rescue of IFN-γ release ranges from 50% to 69.9%)

# Further lines, with some results ahead:
activity at 0.1 µM (PD-L1),Structure (SMILES),TIM-3 (rescue of IFN γ release @ 100 nM) (recombinant human TIM-3)
90%,CC(O)[C@@H](NC(=O)N[C@@H](CC(N)=O)c1nc([C@@H](N)CO)no1)C(=O)O (stereo partly shown) [Compound 22],C (less than 50% rescue of IFN-γ release)
70%,N=C(N)NCCC[C@H](N)c1noc([C@H](CC(N)=O)NC(=O)N[C@@H](CO)C(=O)O)n1 [Compound 25],A (more than 70% rescue of IFN-γ release)
